One experiment deals with HL-60. The experiment can be described thus: Cytotoxicity against human HL60 cells after 48 hrs by MTT assay. Particulars: HL-60, 48 h. The class given is functional, cell-based.
The target of another experiment is T1, Aminopeptidase N (Sus scrofa, UniProt P15145).
T1 sequence (P15145 whole entry): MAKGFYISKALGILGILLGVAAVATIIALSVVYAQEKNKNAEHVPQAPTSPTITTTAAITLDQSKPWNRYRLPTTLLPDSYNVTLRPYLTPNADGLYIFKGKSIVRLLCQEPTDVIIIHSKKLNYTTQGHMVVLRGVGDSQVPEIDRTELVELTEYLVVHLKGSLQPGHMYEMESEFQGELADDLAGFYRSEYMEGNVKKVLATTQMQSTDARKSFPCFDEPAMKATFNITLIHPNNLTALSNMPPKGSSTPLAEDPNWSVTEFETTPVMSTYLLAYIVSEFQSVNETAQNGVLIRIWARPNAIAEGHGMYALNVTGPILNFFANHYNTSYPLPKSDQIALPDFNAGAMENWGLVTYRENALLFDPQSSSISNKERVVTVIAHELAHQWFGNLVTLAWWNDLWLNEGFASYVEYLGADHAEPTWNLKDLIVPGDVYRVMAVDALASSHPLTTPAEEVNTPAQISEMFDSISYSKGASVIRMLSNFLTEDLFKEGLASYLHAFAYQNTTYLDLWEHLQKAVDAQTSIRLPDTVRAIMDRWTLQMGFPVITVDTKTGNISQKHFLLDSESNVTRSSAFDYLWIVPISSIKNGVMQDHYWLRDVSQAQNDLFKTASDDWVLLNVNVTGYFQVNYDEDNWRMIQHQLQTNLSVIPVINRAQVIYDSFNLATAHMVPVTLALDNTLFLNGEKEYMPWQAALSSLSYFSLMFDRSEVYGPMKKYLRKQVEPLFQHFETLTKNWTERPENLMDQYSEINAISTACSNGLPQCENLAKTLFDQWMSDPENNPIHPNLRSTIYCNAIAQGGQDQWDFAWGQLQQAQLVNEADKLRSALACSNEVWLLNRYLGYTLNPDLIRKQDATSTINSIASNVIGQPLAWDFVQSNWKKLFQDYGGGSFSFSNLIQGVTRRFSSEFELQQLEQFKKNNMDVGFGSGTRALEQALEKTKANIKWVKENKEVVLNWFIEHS
The experiment can be described thus: Inhibition of pig kidney microsomes aminopeptidase N preincubated for 30 mins.

Another experiment has as its system H22. The experiment can be described thus: Antimetastatic activity in mouse H22 cells xenografted in mouse assessed as reduction of metastasized nodes at 50 mg/kg, po administered 6 days per week for 2 weeks measured after 1 day last post dose. More on the design: scale not given: the % may be the effect or the level left. The class given is functional.

For orientation: IC50 means the concentration needed to halve the response being measured. As for `COC(=O)[C@H](CCCNC(=N)N[N+](=O)[O-])NC(=O)CN1C(=O)CC[C@H](NC(=O)c2cc(OC)c(OC)c(OC)c2)C1=O`, the values for the IC50 in the experiment on HL-60 and against Aminopeptidase N were 86 µM and 42 µM, respectively.

On to `O=C(CN1C(=O)CC[C@H](NC(=O)c2cc(O)c(O)c(O)c2)C1=O)NO`, for which the IC50 at Aminopeptidase N stood at 4.3 µM.

On to `CC(C)C[C@H](NC(=O)CN1C(=O)CC[C@H](NC(=O)c2cc(O)c(O)c(O)c2)C1=O)C(=O)O`, for which, at Aminopeptidase N, half-maximal inhibition (IC50) was put at 55.4 µM.

On Aminopeptidase N, `O=C(O)CN1C(=O)CC[C@H](NC(=O)c2cc(O)c(O)c(O)c2)C1=O` showed an IC50 of 47.3 µM.

Turning to `CC(C)C[C@H](NC(=O)[C@@H](O)[C@H](N)Cc1ccccc1)C(=O)O` [UBENIMEX], the Activity with H22 came to 60.25%. This compound also yielded a half-inhibitory concentration (IC50) in the experiment on HL-60 of 245 µM.

On Aminopeptidase N, `COC(=O)[C@@H](CCl)NC(=O)CN1C(=O)CC[C@H](NC(=O)c2cc(OC)c(OC)c(OC)c2)C1=O` gave an IC50 of 50 µM.

In turn, `O=C(CN1C(=O)CC[C@H](NC(=O)c2cc(O)c(O)c(O)c2)C1=O)N[C@@H](Cc1ccccc1)C(=O)O` gave an IC50 against Aminopeptidase N of 10.3 µM.

The compound `COC(=O)[C@H](CCCCNC(=O)OCc1ccccc1)NC(=O)CN1C(=O)CC[C@H](NC(=O)c2cc(OC)c(OC)c(OC)c2)C1=O` had a 50% inhibitory concentration (IC50) against Aminopeptidase N of 38.1 µM.

As for `O=C(O)CNC(=O)CN1C(=O)CC[C@H](NC(=O)c2cc(O)c(O)c(O)c2)C1=O`, at Aminopeptidase N, the concentration for half-maximal inhibition (IC50) turned out to be 63.2 µM.

Compound `COC(=O)CC(NC(=O)CN1C(=O)CC[C@H](NC(=O)c2cc(OC)c(OC)c(OC)c2)C1=O)C(=O)OC` (single isomer, unassigned) displayed a half-inhibitory concentration (IC50) against Aminopeptidase N of 21.7 µM.

`COC(=O)[C@@H](CS)NC(=O)CN1C(=O)CC[C@H](NC(=O)c2cc(OC)c(OC)c(OC)c2)C1=O` returned an IC50 against Aminopeptidase N of 50.3 µM.

`COc1cc(C(=O)N[C@H]2CCC(=O)N(CC(=O)NO)C2=O)cc(OC)c1OC`: the Activity in the experiment with H22 was 81.56%. In the experiment on HL-60, this compound returned a half-maximal inhibitory concentration (IC50) of 136 µM.

The record behind these values is ChEMBL document CHEMBL1154789, “Novel cyclic-imide peptidomimetics as aminopeptidase N inhibitors. Design, chemistry and activity evaluation. Part I” (Eur J Med Chem, 2009).
